Key:
[1] = test system: flowing plasma; experiment: Clotting and occlusion of plasma flowing through a glass capillary tube; format: biochemical
Protocol: To show propelling thrombin particles clotting flowing plasma, particles were applied to the bottom of plasma flowing through a glass capillary tube (FIG. 3D,E). A microfluidic system was used to control the flow of plasma, and monitor the flow to determine when clotting occluded flow in the capillary tube. At flow velocities between 0.006 and 3.4 mm/s, the background occlusion times in the system were approximately 30 min. […] At high flows, the clot was easily pushed out and the flow of plasma resumed. […] The particles propelled upwards, against flow, and accumulated high within the tubing. Clotting was seen to initiate at regions with the highest concentration of particles.

[2] = test system: platelet-poor blood plasma; experiment: Clot initiation in a 25 mm column of non-flowing platelet-poor blood plasma; format: biochemical
Protocol: Thr-CaCO3 was mixed at a 1:1 mass ratio with TXA-NH3^+ to yield a propelling particle mixture. A non-propelling mixture consisted of a 1:1 ratio of Thr-CaCO3 with lyophilized TXA-NH2. The ability of the two mixtures to initiate clotting in platelet-poor blood plasma was measured and compared against addition of a similar amount of thrombin (approximately 1 pmol) in HEPES buffer and a control receiving no treatment.
The ability of particles to clot both at the site of application and below the site was assessed by injecting particles near the top of a column of plasma that was 25 mm tall. Initiation of clotting was measured both at the top and the bottom of the column by monitoring the formation of fibrin. The blood plasma was laced with green-fluorescent beads in order to monitor movement and formation of solid fibrin mesh and clot initiation. Clotting at the top was measured visually, and when the plasma became opaque or appeared gelled, clotting was confirmed by gentle manipulation with a micropipette.
Both propelling and non-propelling particles immediately clotted plasma at the top of the column, which was detected within 2 min. The same response occurred when a solution containing an equivalent amount of dissolved thrombin was added. However, there were much larger differences in the clot times at the bottom of the columns of plasma between these samples.
Clotting took about 30 min, as the clot needed to propagate down through the column by diffusion. Clotting at the bottom was faster using non-propelled particles, occurring in 3.7 min as compared to 10 min for the propelled particles. […] Most propelled particles reacted and produced gas at the top so only a fraction of the particles sank to the bottom yielding a slightly slower clot time compared to non-propelling particles. Although the propelled particles out-performed the thrombin solution in this assay, a particular advantage for the propelling particles would come from an ability to propel though flowing solutions.

thrombin [thrombin solution]
flow velocity up to which occlusion occurred [1]: up to 0.06 mm/s | occlusion versus controls at 0.6 mm/s ([1]; flow velocity 0.6 mm/s): no difference from controls | acceleration of clot initiation at the bottom compared to the control ([2]; bottom of 25 mm column): no acceleration of clot initiation | clot time at the bottom of the column ([2]; bottom of 25 mm column, non-flowing plasma): about 30 min | clot time at the top of the column ([2]; site of application, non-flowing plasma): same response

From US12226520B2, “Self-fueled particles for propulsion through flowing aqueous fluids” (The University of British Columbia, priority 2013, dated 2025)
